SMILES strings stand for the structures.

For orientation: IC50 means the midpoint of a concentration-inhibition curve.

Sequence of AKT1 (P31749 whole entry): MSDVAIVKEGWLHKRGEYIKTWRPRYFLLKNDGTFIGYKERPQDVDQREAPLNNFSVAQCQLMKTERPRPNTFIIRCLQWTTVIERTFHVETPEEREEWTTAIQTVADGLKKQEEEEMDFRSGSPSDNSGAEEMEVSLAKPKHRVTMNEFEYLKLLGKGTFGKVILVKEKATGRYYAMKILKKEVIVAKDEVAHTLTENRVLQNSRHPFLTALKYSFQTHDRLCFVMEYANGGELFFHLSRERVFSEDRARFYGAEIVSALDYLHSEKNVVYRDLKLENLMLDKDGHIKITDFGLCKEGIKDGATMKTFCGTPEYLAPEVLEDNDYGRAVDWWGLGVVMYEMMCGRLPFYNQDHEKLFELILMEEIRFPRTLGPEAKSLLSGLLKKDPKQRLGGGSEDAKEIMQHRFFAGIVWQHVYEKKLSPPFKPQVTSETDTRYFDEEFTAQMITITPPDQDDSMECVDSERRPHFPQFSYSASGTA

In the assay the target is AKT1 (Homo sapiens (Human), UniProt P31749). Description: Inactive Akt Alpha Screen Assay. Particulars: non *labeled: Akt Alpha Screen assay; read-out: AKT1 biochemical assay, IC50. In a few lines:
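AKT1 activated in situ by PDK1, MAPKAPK2, lipid vesicles and ATP, then phosphorylating biotinylated crosstide for 30 min at room temperature. Stopped with 10 mM EDTA; phosphopeptide detected by AlphaScreen using phospho-AKT substrate antibody (1:350), Protein A acceptor and streptavidin donor beads, 90 min dark, ex 640/em 570 nm.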
Take `COc1ccc(C)cc1NC(=O)NC1CCN(Cc2ccc(-c3nnc4n3-c3cccnc3Nc3ccccc3-4)cc2)CC1` [Example 166, 1-(1-(4-(9H-benzo[f]pyrido[2,3-b][1,2,4]triazolo[4,3-d][1,4]diazepin-3-yl)benzyl)piperidin-4-yl)-3-(2-methoxy-5-methylphenyl)urea]: the IC50 amounted to 720 nM. The result for `CC(C)CNCc1ccc(-c2nnc3n2-c2cccnc2Nc2ccccc2-3)cc1` [Example 71, N-(4-(9H-benzo[f]pyrido[2,3-b][1,2,4]triazolo[4,3-d][1,4]diazepin-3-yl)benzyl)-2-methylpropan-1-amine] reads 6400 nM; that for `c1ccc2c(c1)Nc1ncccc1-n1c(-c3ccc(CNCC4CC4)cc3)nnc1-2` [Example 93, N-(4-(9H-benzo[f]pyrido[2,3-b][1,2,4]triazolo[4,3-d][1,4]diazepin-3-yl)benzyl)-1-cyclopropylmethanamine], 6700 nM; that for `NC1(c2ccc(-c3nnc4n3-c3cccnc3Nc3ccc(-c5ccccc5)cc3-4)cc2)CCC1` [Example 224, 1-(4-(12-phenyl-9H-benzo[f]pyrido[2,3-b][1,2,4]triazolo[4,3-d][1,4]diazepin-3-yl)phenyl)cyclobutanamine], 1200 nM.

Take `O=C(CCc1ccccc1)Nc1ccc(-c2nnc3n2-c2cccnc2Nc2ccccc2-3)cc1` [Example 54, N-(4-(9H-benzo[f]pyrido[2,3-b][1,2,4]triazolo[4,3-d][1,4]diazepin-3-yl)phenyl)-3-phenylpropanamide]: the IC50 was determined as 1800 nM.

`Cc1cc(C(=O)NC2(c3ccc(-c4nnc5n4-c4cccnc4Nc4ccccc4-5)cc3)CCC2)no1` [Example 206, N-(1-(4-(9H-benzo[f]pyrido[2,3-b][1,2,4]triazolo[4,3-d][1,4]diazepin-3-yl)phenyl)cyclobutyl)-5-methylisoxazole-3-carboxamide]: the IC50 amounted to 240 nM.

As for `CS(=O)(=O)OCc1ccc(-c2nnc3n2-c2cccnc2Nc2ccccc2-3)cc1` [Example 64, 4-(9H-benzo[f]pyrido[2,3-b][1,2,4]triazolo[4,3-d][1,4]diazepin-3-yl)benzyl methanesulfonate], the IC50 came to 490 nM. `c1ccc2c(c1)Nc1ncccc1-n1c(-c3ccc(C4CCCN4)cc3)nnc1-2` (centres unmarked) [Example 196, 3-(4-(pyrrolidin-2-yl)phenyl)-9H-benzo[f]pyrido[2,3-b][1,2,4]triazolo[4,3-d][1,4]diazepine]: the IC50 was 1100 nM. With `Cc1cccc(S(=O)(=O)NC2(c3ccc(-c4nnc5n4-c4cccnc4Nc4ccccc4-5)cc3)CCC2)c1` [Example 199, N-(1-(4-(9H-benzo[f]pyrido[2,3-b][1,2,4]triazolo[4,3-d][1,4]diazepin-3-yl)phenyl)cyclobutyl)-3-methylbenzenesulfonamide] the figure was 460 nM. In the case of `O=C(NCc1ccc(-c2nnc3n2-c2cccnc2Nc2ccccc2-3)cc1)Nc1ccccc1` [Example 107, 1-(4-(9H-benzo[f]pyrido[2,3-b][1,2,4]triazolo[4,3-d][1,4]diazepin-3-yl)benzyl)-3-phenylurea], the 50% inhibitory concentration (IC50) was determined as 2900 nM. As to `CC(C)(C)OC(=O)NC1(c2ccc(-c3nnc4n3-c3cccnc3Nc3ccccc3-4)cc2)CC1` [Example 221, tert-butyl (1-(4-(9H-benzo[f]pyrido[2,3-b][1,2,4]triazolo[4,3-d][1,4]diazepin-3-yl)phenyl)cyclopropyl)carbamate], the half-inhibitory concentration (IC50) was 1400 nM. With `O=C(Nc1ccccc1)NC1(c2ccc(-c3nnc4n3-c3cccnc3Nc3ccccc3-4)cc2)CCC1` [Example 194, 1-(1-(4-(9H-benzo[f]pyrido[2,3-b][1,2,4]triazolo[4,3-d][1,4]diazepin-3-yl)phenyl)cyclobutyl)-3-phenylurea] the figure was 1200 nM; with `CC(C)(C)c1ccc(C(=O)Nc2ccc(-c3nnc4n3-c3cccnc3Nc3ccccc3-4)cc2)cc1` [Example 44, N-(4-(9H-benzo[f]pyrido[2,3-b][1,2,4]triazolo[4,3-d][1,4]diazepin-3-yl)phenyl)-4-(tert-butyl)benzamide], 230 nM; with `O=S(=O)(Cc1ccccc1)NC1CCN(Cc2ccc(-c3nnc4n3-c3cccnc3Nc3ccccc3-4)cc2)CC1` [Example 152, N-(1-(4-(9H-benzo[f]pyrido[2,3-b][1,2,4]triazolo[4,3-d][1,4]diazepin-3-yl)benzyl)piperidin-4-yl)-1-phenylmethanesulfonamide], 1800 nM. For `N#Cc1ccc(C(=O)Nc2ccc(-c3nnc4n3-c3cccnc3Nc3ccccc3-4)cc2)cc1` [Example 38, N-(4-(9H-benzo[f]pyrido[2,3-b][1,2,4]triazolo[4,3-d][1,4]diazepin-3-yl)phenyl)-4-cyanobenzamide], the IC50 stood at 140 nM. The result for `OCC1CCN(Cc2ccc(-c3nnc4n3-c3cccnc3Nc3ccccc3-4)cc2)CC1` [Example 76, (1-(4-(9H-benzo[f]pyrido[2,3-b][1,2,4]triazolo[4,3-d][1,4]diazepin-3-yl)benzyl)piperidin-4-yl)methanol] reads 8300 nM; that for `CN(CCc1ccccn1)Cc1ccc(-c2nnc3n2-c2cccnc2Nc2ccccc2-3)cc1` [Example 75, N-(4-(9H-benzo[f]pyrido[2,3-b][1,2,4]triazolo[4,3-d][1,4]diazepin-3-yl)benzyl)-N-methyl-2-(pyridin-2-yl)ethanamine], 1100 nM. Regarding `CN1CCC(N(C)Cc2ccc(-c3nnc4n3-c3cccnc3Nc3ccccc3-4)cc2)CC1` [Example 88, N-(4-(9H-benzo[f]pyrido[2,3-b][1,2,4]triazolo[4,3-d][1,4]diazepin-3-yl)benzyl)-N,1-dimethylpiperidin-4-amine], the IC50 was found to be 5500 nM.

`c1ccc2c(c1)Nc1ncccc1-n1c(-c3ccc(CN4CCCC4)cc3)nnc1-2` [Example 65, 3-(4-(pyrrolidin-1-ylmethyl)phenyl)-9H-benzo[f]pyrido[2,3-b][1,2,4]triazolo[4,3-d][1,4]diazepine]: the IC50 came out at 4300 nM. The result for `c1ccc(CCNC2(c3ccc(-c4nnc5n4-c4cccnc4Nc4ccccc4-5)cc3)CCC2)cc1` [Example 229, 1-(4-(9H-benzo[f]pyrido[2,3-b][1,2,4]triazolo[4,3-d][1,4]diazepin-3-yl)phenyl)-N-phenethylcyclobutanamine] reads 3800 nM; that for `O=C(c1ccc(-c2nnc3n2-c2cccnc2Nc2ccccc2-3)cc1)N1CCC(n2c(=O)[nH]c3ccccc32)CC1` [Example 26, 1-(1-(4-(9H-benzo[f]pyrido[2,3-b][1,2,4]triazolo[4,3-d][1,4]diazepin-3-yl)benzoyl)piperidin-4-yl)-1H-benzo[d]imidazol-2(3H)-one], 800 nM. The result for `Cc1nc(C)c(S(=O)(=O)NC2CCN(Cc3ccc(-c4nnc5n4-c4cccnc4Nc4ccccc4-5)cc3)CC2)s1` [Example 153, N-(1-(4-(9H-benzo[f]pyrido[2,3-b][1,2,4]triazolo[4,3-d][1,4]diazepin-3-yl)benzyl)piperidin-4-yl)-2,4-dimethylthiazole-5-sulfonamide] reads 5300 nM; that for `O=C(NCCc1ccc(-c2nnc3n2-c2cccnc2Nc2ccccc2-3)cc1)c1ccccc1` [Example 111, N-(4-(9H-benzo[f]pyrido[2,3-b][1,2,4]triazolo[4,3-d][1,4]diazepin-3-yl)phenethyl)benzamide], 630 nM.

Values taken from patent US8541407B2 (ArQule, Inc., priority 2010, dated 2013).
